Data as given in ChEMBL document CHEMBL3525933 (Drug Metab Dispos, 2012).

What was measured:
Type in all cases: ADME, organism-based
[1] = Drug excretion in streptozotocin-induced diabetic Wistar rat urine treated with mangiferin at 400 mg/kg, po administered as single dose by HPLC-DAD analysis; design: dose 400 mg/kg, route oral; details: in vivo
[2] = Drug excretion in conventional Wistar rat feces treated with mangiferin at 400 mg/kg, po administered as single dose by HPLC-DAD analysis; design: dose 400 mg/kg, route oral; details: in vivo
[3] = Drug excretion in streptozotocin-induced diabetic Wistar rat feces treated with mangiferin at 400 mg/kg, po administered as single dose by HPLC-DAD analysis; design: dose 400 mg/kg, route oral; details: in vivo
[4] = species on record: Rattus norvegicus; assay: Drug retention time in Wistar rat by HPLC-DAD analysis
[5] = Drug excretion in conventional Wistar rat urine treated with mangiferin at 400 mg/kg, po administered as single dose by HPLC-DAD analysis; design: dose 400 mg/kg, route oral; details: in vivo

Row | Compound | Drug excretion [1] | Drug excretion [2] | Drug excretion [3] | Retention_time [4] | Drug excretion [5]
1 | O=c1c2cc(O)c(O)cc2oc2cc(O)cc(O)c12 | metabolite_detected | metabolite_detected | metabolite_detected | 36 min | metabolite_detected
2 | O=c1c2cc(O)ccc2oc2cccc(O)c12 | metabolite_detected |  |  | 40.4 min | 
